# Columns and labels:
# [1] = test system: PKR; assay: Immunohistochemical analysis of phospho-PKR (Thr446) (Test Example 2); assay type: in vivo, mice; conditions: prefrontal cortex; nasal, single agent 0.04 mg/day, 1 month
# Procedure: (§1) Age-matched non-Tg rat mates received only CMC.
# (§2) After the behavioral test, each group was divided into two groups: one for immunohistochemical analysis and the other for future biochemical analysis. Immunohistochemical staining was performed as described above. For staining of double-stranded RNA-dependent protein kinase (PKR), phosphorylated TDP-43, synaptophysin, sections were boiled in 10 mM citrate buffer solution (pH6) for 30 min to expose the antigens. The sections were blocked overnight with 10% calf serum, and then the resultant sections were stained with antibodies for DNA/RNA G-quadruplex (BG4; Absolute antibody, Cleveland, UK), phospho-PKR (Thr446) (MilliporeSigma, Burlington, MA, USA), poly-GA, poly-GP (Cosmo Bio Co., Ltd., Tokyo, Japan), pSer409/410-TDP-43 (Cosmo Bio Co., Ltd.), and synaptophysin (SVP-38; Sigma-Aldrich, St. Luis, MO, USA). Only synaptophysin was stained with a biotin-labeled secondary antibody (Vector Laboratories, Burlingame, CA, USA), a horseradish peroxidase (HRP) -labeled avidin-biotin complex (Vector Laboratories), HRP substrate, diaminobenzidine (DAB), or an FITC-labeled secondary antibody (The Jackson Laboratory). […] Neuropathologies were evaluated by measuring the staining intensity or area or by counting positive puncta or cells in a constant area in each photograph using NIH ImageJ software.
# [2] = test system: FTD/ALS model mice; assay: Morris water maze test (Test Example 2); assay type: in vivo; conditions: 7- to 8-month-old mice; nasal, single agent 0.04 mg/day, 1 month
# Source text: FVB/NJ-Tg(C9orf72)500Lpwr/J mice (FTD/ALS model mice) were purchased from The Jackson Laboratory (Bar Harbor, ME, USA). The mouse strain was generated as a model for the C9orf72-associated FTD/ALS expressing the human C9orf72 gene with about 500 hexanucleotide ([…]) repeats using a bacterial artificial chromosome (BAC) vector. Transgenic (Tg) mice were crossed with wild-type FVB/NJc1 mice, and the transgene was maintained as a heterozygote at our animal facility. […] Louis, MO) and trans-resveratrol (Sigma-Aldrich) were dissolved in 0.5% low-viscosity CMC (Sigma-Aldrich) at 4 mg/mL. […] Age-matched non-Tg […] mates received only CMC. After administration for one month, the cognitive function of the mice was assessed in the Morris water maze test as described above.
# [3] = test system: BDNF; assay: Expression of BDNF in the mouse brains; assay type: in vivo; conditions: stated in the discussion only; no method, dose or data given
# [4] = test system: FTD/ALS model mice; assay: Immunohistochemical analysis of brain sections (Test Example 2); assay type: in vivo; conditions: nasal, single agent 0.04 mg/day, 1 month
# Source text: FVB/NJ-Tg(C9orf72)500Lpwr/J mice (FTD/ALS model mice) were purchased from The Jackson Laboratory (Bar Harbor, ME, USA). The mouse strain was generated as a model for the C9orf72-associated FTD/ALS expressing the human C9orf72 gene with about 500 hexanucleotide (GGGGCC) repeats using a bacterial artificial chromosome (BAC) vector. Transgenic (Tg) mice were crossed with wild-type FVB/NJc1 mice, and the transgene was maintained as a heterozygote at our animal facility.
# as §1, §2
compound,measurement,setting,value
"Oc1ccc(/C=C/c2cc(O)cc(O)c2)cc1 [resveratrol, 3,5,4'-trihydroxy-trans-stilbene]",levels of phosphorylated PKR,[1],significantly reduced
same,cognitive function of FTD/ALS model mice,[2],significantly improved
same,expression of BDNF in the mouse brains,[3],elicited
same,"relative strength of the reduction of prefrontal cortex pathologies (G-quadruplex, phosphorylated PKR, poly-GA, poly-GP, phosphorylated TDP-43)",[4]; comparison among treatment groups,strongest effect
same,synaptic loss (synaptophysin levels) in the DG,[4]; dentate gyrus,significantly restored synaptic loss
same,synaptic loss (synaptophysin levels) in the CA2-3 region,[4]; hippocampus,significantly restored synaptic loss
same,levels of G-quadruplex,[4]; prefrontal cortex,significantly reduced
same,levels of phosphorylated TDP-43,[4]; prefrontal cortex,significantly reduced
same,levels of poly-GA,[4]; prefrontal cortex,significantly reduced
same,levels of poly-GP,[4]; prefrontal cortex,significantly reduced
